According to patent US12454531B2, “Substituted piperazine derivatives useful as T cell activators” (BRISTOL-MYERS SQUIBB COMPANY, priority 2019, dated 2025):
pEC50: −log10 of the molar value.

system: Human whole blood IFN-γ; experiment: Assay 10: Human Whole Blood IFN-γ Assay; assay type: cell-based; conditions: Homo sapiens, 24 h, anti-CD3 and anti-CD28 stimulation, 100% = 3 μM reference compound, read-out: INFg Whole Blood Normalized Agonist EC50
Procedure: Assay 10: Human Whole Blood IFN-γ Assay
Human venous whole blood (22.5 μL per well), obtained from healthy donors, was pre-treated with compounds for one hour at 37° C. in a humidified 95% air/5% CO2 incubator. The blood was stimulated with 2.5 μL anti-human CD3 and anti-CD28 mAb at a final concentration of 1 μg/mL each for 24 hours at 37° C. IFN-7 in the supernatants was measured using AlphLISA kit (Cat #AL217).

SMILES	pEC50
CC(C(=O)Nc1cnn(C)c1)N1C[C@H](C)N(c2cc(=O)n(C)c3ccc(C#N)nc23)C[C@H]1C (stereo partly drawn) [Example 45, 2-((2R,5S)-4-(6-cyano-1-methyl-2-oxo-1,2-dihydro-1,5-naphthyridin-4-yl)-2,5-dimethylpiperazin-1-yl)-N-(1-methyl-1H-pyrazol-4-yl)propanamide]	4.70
C[C@@H]1CN(c2cc(=O)n(C)c3ccc(C#N)nc23)[C@@H](C)CN1C(C(=O)NCCO)c1ccc(F)cc1 (stereo partly drawn) [Example 27, 2-((2R,5S)-4-(6-cyano-1-methyl-2-oxo-1,2-dihydro-1,5-naphthyridin-4-yl)-2,5-dimethylpiperazin-1-yl)-2-(4-fluorophenyl)-N-(2-hydroxyethyl)acetamide]	5.81
C[C@@H]1CN(c2cc(=O)n(C)c3ccc(C#N)nc23)[C@@H](C)CN1C(c1ccc(F)cc1)P(C)(C)=O (single isomer, unassigned) [Example 49]	4.70
CC(C(=O)NC1CCCC1)N1C[C@H](C)N(c2cc(=O)n(C)c3ccc(C#N)nc23)C[C@H]1C (single isomer, unassigned) [Example 43]	4.70
COC(=O)C(c1ccc(F)cc1)N1C[C@H](C)N(c2cc(=O)n(C)c3ccc(C#N)nc23)C[C@H]1C (stereo partly drawn) [Example 7, Methyl 2-((2R,5S)-4-(6-cyano-1-methyl-2-oxo-1,2-dihydro-1,5-naphthyridin-4-yl)-2,5-dimethylpiperazin-1-yl)-2-(4-fluorophenyl)acetate]	7.00
C[C@@H]1CN(c2cc(=O)n(C)c3ccc(C#N)nc23)[C@@H](C)CN1C(C(=O)N(C)C)c1ccc(F)cc1 (stereo partly drawn) [Example 23, 2-((2R,5S)-4-(6-cyano-1-methyl-2-oxo-1,2-dihydro-1,5-naphthyridin-4-yl)-2,5-dimethylpiperazin-1-yl)-2-(4-fluorophenyl)-N,N-dimethylacetamide]	4.70
C[C@@H]1CN(c2cc(=O)n(C)c3ccc(C#N)nc23)[C@@H](C)CN1C(C(N)=O)c1ccc(F)cc1 (stereo partly drawn) [Example 13, 2-((2R,5S)-4-(6-cyano-1-methyl-2-oxo-1,2-dihydro-1,5-naphthyridin-4-yl)-2,5-dimethylpiperazin-1-yl)-2-(4-fluorophenyl)acetamide]	4.70
CC(C(=O)NC1CC1)N1C[C@H](C)N(c2cc(=O)n(C)c3ccc(C#N)nc23)C[C@H]1C (stereo partly drawn) [Example 47, 2-((2R,5S)-4-(6-cyano-1-methyl-2-oxo-1,2-dihydro-1,5-naphthyridin-4-yl)-2,5-dimethylpiperazin-1-yl)-N-cyclopropylpropanamide]	4.70
C[C@@H]1CN(c2cc(=O)n(C)c3ccc(C#N)nc23)[C@@H](C)CN1C(C(=O)O)c1ccc(F)cc1 (single isomer, unassigned) [Example 10]	4.70

same assay, conditions: anti-CD3 and anti-CD28 stimulation, 24 hours, 100% = 3 μM reference compound, read-out: INFg Whole Blood Normalized Agonist EC50

SMILES	pEC50
CC(C(=O)NC1CC1)N1C[C@H](C)N(c2cc(=O)n(C)c3ccc(C#N)nc23)C[C@H]1C (stereo partly drawn) [Example 48, 2-((2R,5S)-4-(6-cyano-1-methyl-2-oxo-1,2-dihydro-1,5-naphthyridin-4-yl)-2,5-dimethylpiperazin-1-yl)-N-cyclopropylpropanamide]	4.70
C[C@@H]1CN(c2cc(=O)n(C)c3ccc(C#N)nc23)[C@@H](C)CN1C(c1ccc(F)cc1)P(C)(C)=O (single isomer, unassigned) [Example 50]	4.70
C[C@@H]1CN(c2cc(=O)n(C)c3ccc(C#N)nc23)[C@@H](C)CN1C(C(=O)N1CCCC1)c1ccc(F)cc1 (stereo partly drawn) [Example 21, 8-((2S,5R)-4-(1-(4-fluorophenyl)-2-oxo-2-(pyrrolidin-1-yl)ethyl)-2,5-dimethylpiperazin-1-yl)-5-methyl-6-oxo-5,6-dihydro-1,5-naphthyridine-2-carbonitrile]	5.59
CC(C(=O)NC1CCCC1)N1C[C@H](C)N(c2cc(=O)n(C)c3ccc(C#N)nc23)C[C@H]1C (single isomer, unassigned) [Example 44]	4.70
C[C@@H]1CN(c2cc(=O)n(C)c3ccc(C#N)nc23)[C@@H](C)CN1C(C(=O)N1CCCC1)c1ccc(F)cc1 (stereo partly drawn) [Example 22, 8-((2S,5R)-4-(1-(4-fluorophenyl)-2-oxo-2-(pyrrolidin-1-yl)ethyl)-2,5-dimethylpiperazin-1-yl)-5-methyl-6-oxo-5,6-dihydro-1,5-naphthyridine-2-carbonitrile]	5.04
CNC(=O)C(c1ccc(F)cc1)N1C[C@H](C)N(c2cc(=O)n(C)c3ccc(C#N)nc23)C[C@H]1C (stereo partly drawn) [Example 25, 2-((2R,5S)-4-(6-cyano-1-methyl-2-oxo-1,2-dihydro-1,5-naphthyridin-4-yl)-2,5-dimethylpiperazin-1-yl)-2-(4-fluorophenyl)-N-methylacetamide]	5.29
COC(=O)CC(c1ccc(F)cc1)N1C[C@H](C)N(c2cc(=O)n(C)c3ccc(C#N)nc23)C[C@H]1C (single isomer, unassigned) [Example 31]	6.82
C[C@@H]1CN(c2cc(=O)n(C)c3ccc(C#N)nc23)[C@@H](C)CN1C(C(N)=O)c1ccc(F)cc1 (stereo partly drawn) [Example 14, 2-((2R,5S)-4-(6-cyano-1-methyl-2-oxo-1,2-dihydro-1,5-naphthyridin-4-yl)-2,5-dimethylpiperazin-1-yl)-2-(4-fluorophenyl)acetamide]	4.70
CC(C)OC(=O)C(c1ccc(F)cc1)N1C[C@H](C)N(c2cc(=O)n(C)c3ccc(C#N)nc23)C[C@H]1C (single isomer, unassigned) [Example 1]	6.21
COC(=O)CC(c1ccc(F)cc1)N1C[C@H](C)N(c2cc(=O)n(C)c3ccc(C#N)nc23)C[C@H]1C (single isomer, unassigned) [Example 32]	5.74
CC(C(=O)Nc1cnn(C)c1)N1C[C@H](C)N(c2cc(=O)n(C)c3ccc(C#N)nc23)C[C@H]1C (stereo partly drawn) [Example 46, 2-((2R,5S)-4-(6-cyano-1-methyl-2-oxo-1,2-dihydro-1,5-naphthyridin-4-yl)-2,5-dimethylpiperazin-1-yl)-N-(1-methyl-1H-pyrazol-4-yl)propanamide]	4.70
C[C@@H]1CN(c2cc(=O)n(C)c3ccc(C#N)nc23)[C@@H](C)CN1C(C(=O)N(C)C)c1ccc(F)cc1 (stereo partly drawn) [Example 24, 2-((2R,5S)-4-(6-cyano-1-methyl-2-oxo-1,2-dihydro-1,5-naphthyridin-4-yl)-2,5-dimethylpiperazin-1-yl)-2-(4-fluorophenyl)-N,N-dimethylacetamide]	4.70
